Where two headings read alike, the source gives them in different places.
System: MCF7/AdrR cells
Test: MTT viability assay of transfected drug resistant cells exposed to drug
Type: cell-based, human
Settings: for IC50: Homo sapiens; for sensitivity of cells expressing WTH3 to drug: MCF7/AdrR cells transfected with pcDNA/WTH3
Description: Reversion of MDR phenotype by overexpression of WTH3, RAB6 or RAB6C in MCF7/AdrR cells. WTH3, RAB6 and RAB6C cDNAs were inserted into pcDNA1.1/Amp expression vectors (Invitrogen Corp.) and transfected into drug resistant MCF7/AdrR cells (Lipofect Amine Plus™; Life Technologies, Inc., (GIBCO)). Expression of the exogenous WTH3 (pcDNA/WTH3), RAB6 (pcDNA/RAB6) or RAB6C (pcDNA/RAB6C) genes in transfected cells was confirmed by RT-PCR. Control cells were provided by transfection with pcDNA1.1/Amp which contained no insert. Cells were exposed to various concentrations of doxorubicin and viablity was determined after 72 hours by MTT assay. […] Cells expressing RAB6 or RAB6C cDNAs were tested for sensitivity to doxorubicin. […] The drug resistant control cells were 3.2 (P<0.0001) times more resistant to the antitumor drug than pcDNA/RAB6C containing cells and 2.2 (P<0.0001) times more resistant to the antitumor drug than pcDNA/RAB6 containing cells.

| IC50 (MCF7, 72 h, control cells transfected with pcDNA1.1/Amp (no insert), viability after 72 hours by MTT, read-out: Mean IC50± SD) | IC50 (MCF7, 72 h, pcDNA/RAB6C containing cells, viability after 72 hours by MTT, read-out: Mean IC50± SD) | IC50 (MCF7, 72 h, pcDNA/RAB6 containing cells, viability after 72 hours by MTT, read-out: Mean IC50± SD) | IC50 (MCF7, MCF7/AdrR cells carrying endogenously expressed RAB6C, read-out: IC50 for doxorubicin) | Compound | sensitivity of cells expressing WTH3 to drug | resistance of control cells relative to pcDNA/RAB6C containing cells (control vs pcDNA/RAB6C cells, P<0.0001) | resistance of control cells relative to pcDNA/RAB6 containing cells (control vs pcDNA/RAB6 cells, P<0.0001) | sensitivity to doxorubicin compared to cells transfected with a control vector (drug resistant cells transfected with a vector which expresses WTH3, RAB6C, or RAB6) |
| --- | --- | --- | --- | --- | --- | --- | --- | --- |
| 4930 ± 300 nM | 1530 ± 130 nM | 2230 ± 170 nM | 1000 to 2500 nM | COc1cccc2c1C(=O)c1c(O)c3c(c(O)c1C2=O)C[C@@](O)(C(=O)CO)C[C@@H]3O[C@H]1C[C@H](N)[C@H](O)[C@H](C)O1 [doxorubicin] | increased sensitivity | 3.2 times | 2.2 times | increased sensitivity |
| – | – | – | – | CC[C@]1(O)C[C@H]2CN(CCc3c([nH]c4ccccc34)[C@@](C(=O)OC)(c3cc4c(cc3OC)N(C=O)[C@H]3[C@@](O)(C(=O)OC)[C@H](OC(C)=O)[C@]5(CC)C=CCN6CC[C@]43[C@@H]65)C2)C1 [vincristine] | increased sensitivity | – | – | – |

Reference: patent US6994991B1, “Identification of differentially methylated multiple drug resistance loci” (North Shore - Long Island Jewish Research Institute, priority 1998, dated 2006)
